# Measurements reported in patent publication US5036008A, “Antitumor antibiotic BU-3285T” (Bristol-Myers Company, priority 1990, dated 1991).
# Entries after “also recorded” stand apart in the source; their conditions may differ.
# What was measured:
# [1] = tested on: Moser (human colorectal carcinoma) cells; test: In vitro cytotoxicity (Table 6)
# Experimental: (§1) BU-3285T was tested for in vitro cytotoxicity against several murine and human tumor cell lines and for in vivo antitumor activity in mice. Mitomycin C was used as a reference compound in both in vitro and in vivo experiments. B16-F10 (murine melanoma) and Moser (human colorectal carcinoma) cells were grown to the logarithmic phase in an enriched Eagle minimum essential medium supplemented with fetal calf serum (FCS, 10%) and kanamycin (60 μg/ml); HCT-116 (human colon carcinoma) cells were in McCoy's 5A medium supplemented with FCS (10%), penicillin (100 U/ml) and streptomycin (100 μg/ml); and P388 (murine lymphocytic leukemia) cells and its vincristine-resistant subline (P388/VCR) were in RPMI 1640 medium supplemented with FCS (10%), penicillin (100 U/ml) and streptomycin (100 μg/ml).
# (§2) B16-F10, Moser, HCT-116 and P388 cells were harvested and implanted into wells of a 96-well (for B16-F10, Moser and HCT-116 cells) or a 24-well (for P388 cells) tissue culture plate with test materials at the inoculum sizes of 3×10^4, 6 ×10^4, 6×10^4 and 2×10^4 cells/ml, respectively. They were incubated at 37° C. in a humidified atmosphere of 5% CO2 and 95% air for 72 hrs. […] For P388 cells, the number of viable cells was determined by a Coulter counter.
# [2] = tested on: P388/VCR (vincristine-resistant subline of P388) cells; test: In vitro cytotoxicity (Table 6)
# Experimental: as §1, §2
# [3] = tested on: DNA biosynthesis in L1210 leukemia cells; test: Inhibition of macromolecule biosynthesis, DNA (Table 7); type: cell-based, murine
# Experimental: Inhibitory effects of BU-3285T on macromolecule biosynthesis (DNA, RNA and protein) were determined in cultured L1210 murine leukemia cells. The cells (5×10^5 cells/ml) were incubated with the compound at 37° C. for 15 minutes and then further incubated for 60 minutes after the addition of labelled precursor, ^3 H-thymidine, ^14 C-uridine or ^3 H-leucine into the cultured mixture. After washing with chilled 5% trichloroacetic acid solution, the radioactivity incorporated into the acid-insoluble fraction of the cells was determined by a liquid scintillation counter.
# L1210 leukemia = test: In vivo antitumor activity against L1210 leukemia (Table 9); details: for Body wt. change on day 6 / MST (median survival time) / T/C: Q1D × 3
# [4] = tested on: B16-F10 (murine melanoma) cells; test: In vitro cytotoxicity (Table 14); type: cell-based; details: Mus musculus, B16-F10, 72 h
# Experimental: B16-F10 (murine melanoma), HCT-116 (human colon carcinoma), A549 (human lung carcinoma) and A549/VP29 (an etoposide-resistant subline of A549) were grown in Eagle's MEM (Nissui) supplemented with FCS (fetal calf serum, 10%) and non-essential amino acids (B16-F10), or in McCoy's 5A medium (Gibco) with FCS (10%), essential and non-essential amino acids, vitamins and antibiotics (HCT-116 and both of A549) at 37° C. under a humidified atmosphere in a 5% CO2 incubator. Exponentially growing B16-F10, HCT-116 and A549 cells were harvested, counted and suspended in the culture medium at 1.5×10^4, 3×10^4 and 3×10^4 cells/ml, respectively. After planting 180 μl of cell suspension into wells of a 96-well microtiter plate on day 0, the test materials (20 μl) were added on day 1 and the plates were incubated for 72 hours. The cytotoxic activity was colorimetrically determined at 540 nm after staining viable cells with neutral red solution.
# Solubility = type: physicochemical
# [5] = tested on: A549/VP29 (etoposide-resistant subline of A549) cells; test: In vitro cytotoxicity (Table 14); details: A549/VP29, 72 hours, neutral red
# Experimental: After planting 180 μl of cell suspension into wells of a 96-well microtiter plate on day 0, the test materials (20 μl) were added on day 1 and the plates were incubated for 72 hours. The cytotoxic activity was colorimetrically determined at 540 nm after staining viable cells with neutral red solution.
# Candida albicans IAM4888 = test: In vitro antifungal activity, serial agar dilution; details: IAM4888, 40 h, pH 7
# Experimental: (§3) In vitro antifungal activity was determined against various fungi by the serial agar dilution method. Sabouraud dextrose agar (pH 7.0) was used for the experiment. The inoculum size was adjusted to 10^6 CFU/ml. After incubation at 28° C. for 40 hours, the minimum inhibitory concentration (MIC) was examined.
# C. albicans A9540 = test: In vitro antifungal activity, serial agar dilution; details: Candida albicans, A9540, 40 h, pH 7
# Experimental: as §3
# [6] = tested on: Cryptococcus neoformans D49; test: In vitro antifungal activity, serial agar dilution; details: D49, 40 h, pH 7
# Experimental: as §3
# [7] = tested on: Aspergillus fumigatus IAM2530; test: In vitro antifungal activity, serial agar dilution; details: IAM2530, 40 h, pH 7
# Experimental: as §3
# [8] = tested on: Fusarium moniliforme A2284; test: In vitro antifungal activity, serial agar dilution; details: Fusarium verticillioides, A2284, 40 h, pH 7
# Experimental: as §3
# [9] = tested on: Petriellidium boydii IF08078; test: In vitro antifungal activity, serial agar dilution; details: Scedosporium boydii, IF08078, 40 h, pH 7
# Experimental: as §3
# Mucor spinosus IF05317 = test: In vitro antifungal activity, serial agar dilution; details: IF05317, 40 h, pH 7
# Experimental: as §3
smiles,measurement,setting,value
CCCCC/C=C/C=C\C=C/C(O)C(C)C(C/C=C/C1OC(=O)C=CC1O)OS(=O)(=O)O (stereo not shown) [BU-3285T],IC50,"[1]; Homo sapiens, 72 h",0.85 µg/mL
same,"cytotoxic activity, comparison among cell lines","[1]; among B16-F10, HCT-116 and Moser",most potent cytotoxic activity against Moser cells
same,IC50,"[2]; Mus musculus, P388/VCR, 72 h",4.4 µg/mL
same,cytotoxicity against P388/VCR compared with parent cells,[2]; vs P388 parent,almost the same cytotoxicity
same,IC50,"[3]; Mus musculus, L1210, 3H-thymidine, ^14 C-uridine or 3H-leucine precursor, 15 min + 60 min, 37° C., read-out: IC50, DNA synthesis",> 100 µg/mL
same,inhibitory effect on DNA synthesis,"[3]; at 100 μg/ml, the highest concentration tested",no significant inhibitory effect
same,Body wt. change on day 6,L1210 leukemia; 0.1 mg/kg/day ip,+2.3 g
same,MST (median survival time),L1210 leukemia; 0.1 mg/kg/day ip,8.0 days
same,T/C,"L1210 leukemia; 0.1 mg/kg/day ip, significant if T/C ≥ 125%",114%
same,Body wt. change on day 6,L1210 leukemia; 0.3 mg/kg/day ip,+2.5 g
same,MST (median survival time),L1210 leukemia; 0.3 mg/kg/day ip,8.0 days
same,T/C,"L1210 leukemia; 0.3 mg/kg/day ip, *2 significant, T/C ≥ 125%",114%
same,Body wt. change on day 6,L1210 leukemia; 1 mg/kg/day ip,+1.5 g
same,MST (median survival time),L1210 leukemia; 1 mg/kg/day ip,9.0 days
same,T/C,"L1210 leukemia; 1 mg/kg/day ip, *2 significant, T/C ≥ 125%",129%
same,Body wt. change on day 6,L1210 leukemia; 3 mg/kg/day ip,+1.5 g
same,MST (median survival time),L1210 leukemia; 3 mg/kg/day ip,9.0 days
same,T/C,"L1210 leukemia; 3 mg/kg/day ip, *2 significant, T/C ≥ 125%",129%
same,Body wt. change on day 6,L1210 leukemia; 10 mg/kg/day ip,0.0 g
same,MST (median survival time),L1210 leukemia; 10 mg/kg/day ip,10.5 days
same,T/C,"L1210 leukemia; 10 mg/kg/day ip, *2 significant, T/C ≥ 125%",150%
same,activity compared with mitomycin C,"L1210 leukemia; L1210, in terms of minimum effective dose",somewhat weaker
same,in vivo antitumor activity,L1210 leukemia; L1210 leukemia in mice,potent in vivo inhibitory activity; also recorded: good antitumor activity
same,IC50,[4],38 µg/mL
same,solubility in acetone,Solubility; acetone,slightly soluble
same,solubility in chloroform,Solubility; chloroform,insoluble
same,solubility in dimethyl sulfoxide,Solubility; dimethyl sulfoxide,soluble
same,solubility in ethanol,Solubility; ethanol,soluble
same,solubility in ethyl acetate,Solubility; ethyl acetate,slightly soluble
same,solubility in methanol,Solubility; methanol,soluble
same,solubility in n-hexane,Solubility; n-hexane,insoluble
same,solubility in water,Solubility; water,soluble
same,IC50,[5],17 µg/mL
same,MIC,Candida albicans IAM4888,25 µg/mL
same,MIC,C. albicans A9540,25 µg/mL
same,MIC,[6],1.6 µg/mL
same,MIC,[7],25 µg/mL
same,MIC,[8],25 µg/mL
same,MIC,[9],0.8 µg/mL
same,MIC,Mucor spinosus IF05317,25 µg/mL
